{"source": "patent US20240392055A1", "about": "“UV/HEVL-FILTERING SILICONE HYDROGEL CONTACT LENSES” (Alcon Inc., priority 2023, published 2024)", "key": {"[1]": {"test": "UV/visible absorption of dilute monomer solutions (absorption peak)", "type": "physicochemical", "details": "HEVL absorption peak; dilute solution in PrOH"}, "[2]": {"test": "Solubility of HEVL-absorbing vinylic monomers in 1-propanol", "type": "physicochemical", "source_text": "It is also reported that there are correlations between lower melting points and compound solubility (Bathori, N. B. Acta Cryst., 2014, A70, C990). Changing the R group from —Cl to —CF3 should both shift the absorbance due to a greater electron withdrawing capability, and increase the solubility by reducing the ability of the compound to crystalize due to the bulky —CF3 group. […] UV23 would seem to be a good candidate because the —CF3 group further red shifts the absorbance and the solubility is much improved."}, "[3]": {"details": "empirical substituent parameter of R group on benzotriazole ring; cited from earlier work"}, "[4]": {"test": "Absorption edge of visible light photoinitiators", "type": "physicochemical", "source_text": "Table 5 provides information about the photoinitiators used in this example."}, "[5]": {"test": "Solubility of photoinitiator in lens formulation", "type": "physicochemical", "protocol": "Four lens formulations without HEVL-absorbing benzotriazole-containing vinylic monomers are prepared to have the following compositions shown in Table 6. TTMB-Sn is not soluble in the formulation at room temperature but is soluble at 40° C. So, the photo-rheology experiment is conducted at 40° C. for this photoinitiator instead of the typical 25° C. (for other three photoinitiators)."}}}
{"smiles": "C=C(C)C(=O)OCCCOc1cc(-n2nc3ccc(Cl)cc3n2)c(O)c(C(C)(C)C)c1", "note": "[UV28, 2-{2′-Hydroxy-3′-tert-butyl-5′-[3′-methacryloyloxypropoxy]phenyl}-5-chloro-2H-benzotriazole]", "values": [{"measurement": "Absorption Peak (nm)", "setting": "[1]", "value": 416, "unit": "nm"}, {"measurement": "Solubility in PrOH", "setting": "[2]", "value": 1500, "unit": "µg/mL"}, {"measurement": "σpara", "setting": "[3]", "value": 0.23}]}
{"smiles": "Cc1cc(C)c([C](=O)[Sn]([C](=O)c2c(C)cc(C)cc2C)([C](=O)c2c(C)cc(C)cc2C)[C](=O)c2c(C)cc(C)cc2C)c(C)c1", "note": "[TTMB-Sn, tetrakis(2,4,6-trimethylbenzoyl)stannane]", "values": [{"measurement": "Abs. edge (nm)", "setting": "[4]", "value": 510, "unit": "nm"}, {"measurement": "solubility in the formulation", "setting": "[5]; 40° C.", "value": "soluble"}, {"measurement": "solubility in the formulation", "setting": "[5]; room temperature", "value": "not soluble"}]}
{"smiles": "CCc1ccccc1[C](=O)[Ge]([C](=O)c1ccccc1CC)([C](=O)c1ccccc1CC)[C](=O)c1ccccc1CC", "note": "[TEB-Ge, tetrakis(2-ethylbenzoyl)-germanium]", "values": [{"measurement": "Abs. edge (nm)", "setting": "[4]", "value": 490, "unit": "nm"}]}
{"smiles": "C=CC(=O)OCCCOc1cc(-n2nc3ccc(C(F)(F)F)cc3n2)c(O)c(C(C)(C)C)c1", "note": "[UV23, 2-[2′-Hydroxy-3′-tert-butyl-5′-(3′-acryloyloxypropoxy)phenyl]-5-trifluoromethyl-2H-benzotriazole]", "values": [{"measurement": "Absorption Peak (nm)", "setting": "[1]", "value": 418, "unit": "nm"}, {"measurement": "Solubility in PrOH", "setting": "[2]", "value": "> 3300", "unit": "µg/mL"}, {"measurement": "σpara", "setting": "[3]", "value": 0.54}]}
{"smiles": "C[CH2][Ge]([CH2]C)([C](=O)c1ccc(OC)cc1)[C](=O)c1ccc(OC)cc1", "note": "[BMBDE-Ge, Bis(4-methoxybenzoyl)diethylgermanium]", "values": [{"measurement": "Abs. edge (nm)", "setting": "[4]", "value": 470, "unit": "nm"}]}
{"smiles": "C[CH2][Ge]([CH2]C)([C](=O)c1ccccc1)[C](=O)c1ccccc1", "note": "[DBDE-Ge, dibenzoyldiethylgermanium]", "values": [{"measurement": "Abs. edge (nm)", "setting": "[4]", "value": 480, "unit": "nm"}]}
